Assay results published in ChEMBL document CHEMBL1201862, “PubChem BioAssay data set” (2004).
Active and inactive are the calls of the source.

Key:
[1] = molecular target: Lysine-specific demethylase 4A (Homo sapiens, UniProt O75164); assay: JMJD2A histone demethylase inhibitors, dose response, selectivity assay for GASC-1 inhibitor project, biochemical, DELFIA europium, cherry-picked samples (AID 488840)
[2] = molecular target: Peroxisome proliferator-activated receptor gamma/Nuclear receptor corepressor 2 (Homo sapiens, UniProt P37231+Q9Y618); assay type: functional
Sequence of Peroxisome proliferator-activated receptor gamma/Nuclear receptor corepressor 2 (P37231 whole entry): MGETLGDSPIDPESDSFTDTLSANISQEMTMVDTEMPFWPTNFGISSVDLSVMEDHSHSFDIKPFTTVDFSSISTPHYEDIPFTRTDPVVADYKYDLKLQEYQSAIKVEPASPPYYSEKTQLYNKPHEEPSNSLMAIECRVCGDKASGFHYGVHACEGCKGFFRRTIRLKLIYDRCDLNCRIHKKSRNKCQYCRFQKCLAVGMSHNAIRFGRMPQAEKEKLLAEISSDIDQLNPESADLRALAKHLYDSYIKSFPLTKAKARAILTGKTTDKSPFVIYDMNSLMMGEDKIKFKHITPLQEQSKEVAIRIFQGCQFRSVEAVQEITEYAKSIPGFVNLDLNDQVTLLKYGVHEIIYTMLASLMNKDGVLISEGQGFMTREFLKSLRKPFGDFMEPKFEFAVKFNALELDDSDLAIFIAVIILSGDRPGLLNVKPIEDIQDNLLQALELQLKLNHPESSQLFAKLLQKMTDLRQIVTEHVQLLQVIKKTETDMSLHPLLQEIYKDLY
Sequence of Peroxisome proliferator-activated receptor gamma/Nuclear receptor corepressor 2 (Q9Y618 whole entry): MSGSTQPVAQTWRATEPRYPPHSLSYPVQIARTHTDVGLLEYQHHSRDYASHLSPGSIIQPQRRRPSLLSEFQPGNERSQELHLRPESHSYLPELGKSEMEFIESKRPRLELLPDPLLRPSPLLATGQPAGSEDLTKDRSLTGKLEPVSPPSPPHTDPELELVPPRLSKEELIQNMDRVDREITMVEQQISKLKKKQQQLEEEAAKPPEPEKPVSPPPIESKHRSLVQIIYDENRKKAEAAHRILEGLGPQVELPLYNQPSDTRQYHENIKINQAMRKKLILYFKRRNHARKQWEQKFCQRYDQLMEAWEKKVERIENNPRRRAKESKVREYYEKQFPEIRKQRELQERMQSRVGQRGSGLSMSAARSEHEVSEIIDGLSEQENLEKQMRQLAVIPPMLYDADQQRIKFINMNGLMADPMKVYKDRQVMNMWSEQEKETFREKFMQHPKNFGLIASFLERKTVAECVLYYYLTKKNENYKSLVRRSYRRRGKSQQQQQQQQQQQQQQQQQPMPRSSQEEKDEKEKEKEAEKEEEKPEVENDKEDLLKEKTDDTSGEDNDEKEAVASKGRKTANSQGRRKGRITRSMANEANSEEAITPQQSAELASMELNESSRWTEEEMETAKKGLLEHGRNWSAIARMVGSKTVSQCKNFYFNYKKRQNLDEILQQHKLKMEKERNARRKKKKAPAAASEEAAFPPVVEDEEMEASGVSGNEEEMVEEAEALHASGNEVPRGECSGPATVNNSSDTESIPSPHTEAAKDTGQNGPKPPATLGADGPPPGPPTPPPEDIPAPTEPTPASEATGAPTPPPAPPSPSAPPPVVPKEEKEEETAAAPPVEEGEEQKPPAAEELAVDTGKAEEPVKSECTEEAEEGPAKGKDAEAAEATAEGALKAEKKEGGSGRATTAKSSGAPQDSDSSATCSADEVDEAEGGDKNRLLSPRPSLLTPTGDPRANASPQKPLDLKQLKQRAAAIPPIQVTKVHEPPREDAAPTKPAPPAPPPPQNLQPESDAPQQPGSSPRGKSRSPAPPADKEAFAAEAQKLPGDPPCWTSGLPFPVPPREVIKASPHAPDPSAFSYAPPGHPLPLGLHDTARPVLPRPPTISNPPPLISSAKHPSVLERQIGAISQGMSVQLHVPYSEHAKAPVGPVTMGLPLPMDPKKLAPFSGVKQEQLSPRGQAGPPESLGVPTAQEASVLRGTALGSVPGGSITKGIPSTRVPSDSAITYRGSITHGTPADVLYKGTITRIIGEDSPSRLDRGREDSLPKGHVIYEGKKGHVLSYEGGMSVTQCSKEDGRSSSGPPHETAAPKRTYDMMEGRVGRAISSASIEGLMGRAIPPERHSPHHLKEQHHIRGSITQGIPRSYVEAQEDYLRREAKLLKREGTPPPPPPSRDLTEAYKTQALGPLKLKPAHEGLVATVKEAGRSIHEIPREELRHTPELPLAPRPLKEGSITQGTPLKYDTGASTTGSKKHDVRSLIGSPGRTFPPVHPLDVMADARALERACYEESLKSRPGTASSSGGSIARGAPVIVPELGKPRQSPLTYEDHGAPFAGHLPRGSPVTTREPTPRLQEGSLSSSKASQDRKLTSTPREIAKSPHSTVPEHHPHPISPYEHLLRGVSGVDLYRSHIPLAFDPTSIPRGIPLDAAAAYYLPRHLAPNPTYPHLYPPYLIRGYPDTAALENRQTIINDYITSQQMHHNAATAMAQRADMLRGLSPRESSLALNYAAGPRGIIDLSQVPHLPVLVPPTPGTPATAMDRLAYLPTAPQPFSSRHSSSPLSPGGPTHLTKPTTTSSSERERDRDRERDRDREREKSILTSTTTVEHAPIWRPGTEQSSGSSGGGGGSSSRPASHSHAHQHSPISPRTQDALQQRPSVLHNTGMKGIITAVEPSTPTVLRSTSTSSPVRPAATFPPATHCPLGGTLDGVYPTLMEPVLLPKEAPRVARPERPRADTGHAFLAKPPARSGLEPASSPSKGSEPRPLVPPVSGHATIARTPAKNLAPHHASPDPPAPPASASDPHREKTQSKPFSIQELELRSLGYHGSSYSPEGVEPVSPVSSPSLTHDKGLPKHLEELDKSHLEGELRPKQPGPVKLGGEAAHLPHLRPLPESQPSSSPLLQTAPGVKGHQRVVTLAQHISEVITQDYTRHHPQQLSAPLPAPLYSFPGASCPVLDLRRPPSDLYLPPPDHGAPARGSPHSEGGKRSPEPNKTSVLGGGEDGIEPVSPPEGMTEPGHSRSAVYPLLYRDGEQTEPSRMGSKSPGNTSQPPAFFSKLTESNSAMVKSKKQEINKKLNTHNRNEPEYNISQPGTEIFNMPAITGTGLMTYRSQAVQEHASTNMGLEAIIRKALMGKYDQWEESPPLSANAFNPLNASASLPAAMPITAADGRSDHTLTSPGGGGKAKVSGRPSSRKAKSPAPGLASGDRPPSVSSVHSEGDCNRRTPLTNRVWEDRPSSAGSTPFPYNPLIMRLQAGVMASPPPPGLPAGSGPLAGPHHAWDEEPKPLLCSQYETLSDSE

Exodeoxyribonuclease V = molecular target: T1, Exodeoxyribonuclease V (Escherichia coli (strain K12), UniProt P04993+P07648+P08394); assay: E. coli RecBCD inhibitors, dose response, counter-screen for AddAB inhibitor project, absorbance, V66 E. coli, mutant T4 phage (AID 492957); assay type: functional, cell-based, Escherichia coli str. K-12 substr. MG1655
T1 sequence (P04993 whole entry): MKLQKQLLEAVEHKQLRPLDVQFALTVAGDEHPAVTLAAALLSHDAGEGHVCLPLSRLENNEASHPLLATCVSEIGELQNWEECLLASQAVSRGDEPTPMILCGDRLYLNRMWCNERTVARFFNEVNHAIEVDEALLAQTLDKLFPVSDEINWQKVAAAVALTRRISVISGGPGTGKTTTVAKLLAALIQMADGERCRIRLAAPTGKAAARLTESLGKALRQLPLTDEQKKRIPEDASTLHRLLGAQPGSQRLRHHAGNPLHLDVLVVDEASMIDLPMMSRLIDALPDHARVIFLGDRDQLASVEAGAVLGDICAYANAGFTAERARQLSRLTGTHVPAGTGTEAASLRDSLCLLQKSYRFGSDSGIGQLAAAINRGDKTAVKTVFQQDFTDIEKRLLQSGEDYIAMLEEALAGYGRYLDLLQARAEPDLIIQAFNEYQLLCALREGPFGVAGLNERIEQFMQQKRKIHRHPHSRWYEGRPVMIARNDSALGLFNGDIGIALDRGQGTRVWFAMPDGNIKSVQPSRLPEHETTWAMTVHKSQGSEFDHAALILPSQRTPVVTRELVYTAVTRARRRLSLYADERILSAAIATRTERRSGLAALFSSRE
T1 sequence (P07648 whole entry): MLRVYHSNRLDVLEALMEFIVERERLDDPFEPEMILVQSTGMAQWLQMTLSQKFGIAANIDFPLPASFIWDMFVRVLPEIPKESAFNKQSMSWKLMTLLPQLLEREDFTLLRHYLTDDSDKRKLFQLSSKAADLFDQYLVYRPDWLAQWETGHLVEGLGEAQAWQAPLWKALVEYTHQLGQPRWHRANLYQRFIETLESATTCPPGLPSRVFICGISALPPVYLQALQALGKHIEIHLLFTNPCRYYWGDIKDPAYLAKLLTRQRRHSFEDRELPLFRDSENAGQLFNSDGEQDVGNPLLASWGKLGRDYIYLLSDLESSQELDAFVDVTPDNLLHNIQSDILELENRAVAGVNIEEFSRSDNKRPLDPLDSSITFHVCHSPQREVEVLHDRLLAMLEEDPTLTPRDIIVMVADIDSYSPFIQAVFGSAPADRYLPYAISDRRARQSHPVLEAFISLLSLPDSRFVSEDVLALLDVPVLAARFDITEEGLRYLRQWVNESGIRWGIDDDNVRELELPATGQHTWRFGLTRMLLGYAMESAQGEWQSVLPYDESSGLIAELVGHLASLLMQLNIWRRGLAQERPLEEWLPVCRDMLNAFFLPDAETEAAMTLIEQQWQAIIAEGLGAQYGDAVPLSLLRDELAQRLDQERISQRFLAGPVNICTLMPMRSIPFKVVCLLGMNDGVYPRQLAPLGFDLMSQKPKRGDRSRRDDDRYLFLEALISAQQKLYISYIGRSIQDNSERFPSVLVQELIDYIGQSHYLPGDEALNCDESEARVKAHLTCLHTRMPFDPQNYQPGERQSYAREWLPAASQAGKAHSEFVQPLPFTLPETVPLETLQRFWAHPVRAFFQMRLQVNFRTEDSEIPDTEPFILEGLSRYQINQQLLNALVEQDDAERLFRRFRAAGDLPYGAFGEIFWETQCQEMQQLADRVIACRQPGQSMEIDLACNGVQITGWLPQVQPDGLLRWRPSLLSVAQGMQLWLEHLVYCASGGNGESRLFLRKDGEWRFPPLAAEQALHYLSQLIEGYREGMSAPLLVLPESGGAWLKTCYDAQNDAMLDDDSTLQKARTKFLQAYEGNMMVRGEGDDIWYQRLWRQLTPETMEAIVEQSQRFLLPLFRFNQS
T1 sequence (P08394 whole entry): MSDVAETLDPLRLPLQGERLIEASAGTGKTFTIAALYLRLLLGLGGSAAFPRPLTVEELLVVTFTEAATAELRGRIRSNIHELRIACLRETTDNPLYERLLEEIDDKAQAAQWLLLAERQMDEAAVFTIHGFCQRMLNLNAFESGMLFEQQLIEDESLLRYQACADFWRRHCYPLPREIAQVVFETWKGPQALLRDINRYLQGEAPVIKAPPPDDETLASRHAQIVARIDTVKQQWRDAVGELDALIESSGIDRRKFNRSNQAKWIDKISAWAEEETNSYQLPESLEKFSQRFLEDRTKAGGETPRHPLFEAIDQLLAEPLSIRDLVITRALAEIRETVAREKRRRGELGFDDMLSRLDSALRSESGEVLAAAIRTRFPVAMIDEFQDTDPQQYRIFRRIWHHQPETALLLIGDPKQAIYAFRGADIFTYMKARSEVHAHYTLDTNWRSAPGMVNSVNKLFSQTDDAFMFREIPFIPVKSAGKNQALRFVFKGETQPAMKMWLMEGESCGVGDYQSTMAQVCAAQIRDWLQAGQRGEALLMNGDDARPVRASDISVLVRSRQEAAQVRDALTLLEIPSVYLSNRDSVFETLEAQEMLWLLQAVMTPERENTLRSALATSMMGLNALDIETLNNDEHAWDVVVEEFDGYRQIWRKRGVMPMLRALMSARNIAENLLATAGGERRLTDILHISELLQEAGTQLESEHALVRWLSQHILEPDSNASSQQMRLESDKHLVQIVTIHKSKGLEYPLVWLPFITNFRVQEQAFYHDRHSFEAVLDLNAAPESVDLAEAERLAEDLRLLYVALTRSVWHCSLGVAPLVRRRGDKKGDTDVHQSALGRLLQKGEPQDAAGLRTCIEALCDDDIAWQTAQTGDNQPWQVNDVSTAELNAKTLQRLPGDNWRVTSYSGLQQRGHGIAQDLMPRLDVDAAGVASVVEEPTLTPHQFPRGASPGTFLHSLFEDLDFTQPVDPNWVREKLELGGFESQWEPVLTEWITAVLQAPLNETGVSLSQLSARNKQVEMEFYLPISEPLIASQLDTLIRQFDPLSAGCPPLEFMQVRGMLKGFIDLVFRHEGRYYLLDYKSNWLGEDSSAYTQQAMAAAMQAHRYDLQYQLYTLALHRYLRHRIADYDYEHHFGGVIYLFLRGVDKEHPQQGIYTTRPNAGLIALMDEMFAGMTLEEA

Sequence of Lysine-specific demethylase 4A (O75164 whole entry): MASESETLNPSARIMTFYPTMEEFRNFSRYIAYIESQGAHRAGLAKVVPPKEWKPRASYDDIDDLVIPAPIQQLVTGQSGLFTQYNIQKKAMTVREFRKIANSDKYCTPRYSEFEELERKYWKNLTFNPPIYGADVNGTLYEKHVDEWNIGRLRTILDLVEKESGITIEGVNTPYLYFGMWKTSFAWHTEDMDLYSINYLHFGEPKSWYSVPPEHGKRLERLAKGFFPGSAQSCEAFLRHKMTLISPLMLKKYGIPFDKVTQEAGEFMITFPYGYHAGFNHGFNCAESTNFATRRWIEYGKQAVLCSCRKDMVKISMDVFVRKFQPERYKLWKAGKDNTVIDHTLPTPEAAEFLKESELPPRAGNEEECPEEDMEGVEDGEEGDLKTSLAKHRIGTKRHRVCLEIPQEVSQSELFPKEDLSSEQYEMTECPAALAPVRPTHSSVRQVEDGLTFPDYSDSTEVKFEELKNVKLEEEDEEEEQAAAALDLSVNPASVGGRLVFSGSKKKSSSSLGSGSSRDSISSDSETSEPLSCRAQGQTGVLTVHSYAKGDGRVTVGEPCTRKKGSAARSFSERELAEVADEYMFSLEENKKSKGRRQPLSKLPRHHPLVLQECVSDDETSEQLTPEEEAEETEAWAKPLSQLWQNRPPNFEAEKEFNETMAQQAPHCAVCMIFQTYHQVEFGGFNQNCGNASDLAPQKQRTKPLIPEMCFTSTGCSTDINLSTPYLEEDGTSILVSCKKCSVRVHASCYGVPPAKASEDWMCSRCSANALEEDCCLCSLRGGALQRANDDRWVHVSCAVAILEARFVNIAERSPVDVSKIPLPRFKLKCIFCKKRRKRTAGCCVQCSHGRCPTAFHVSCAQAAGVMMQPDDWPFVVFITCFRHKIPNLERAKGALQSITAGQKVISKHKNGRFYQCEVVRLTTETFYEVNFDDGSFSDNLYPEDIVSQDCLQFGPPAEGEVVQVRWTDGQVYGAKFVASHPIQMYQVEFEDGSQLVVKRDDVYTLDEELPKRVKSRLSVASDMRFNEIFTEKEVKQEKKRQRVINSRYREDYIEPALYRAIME

With `Cn1nc(-c2ccccn2)nc2c(=O)n(C)c(=O)nc1-2` the AC50 [1] was 5.1 µM (active) and the IC50 [2] was 4.69 µM (active).

`CCC(=O)NC(c1ccc(OC)cc1)c1cc(Cl)c2cccnc2c1O` (stereo not drawn) was tested, and the IC50 (Exodeoxyribonuclease V) was > 119 µM (inactive).
